# According to US3978045A, “N^2 -dansyl-L-arginine derivatives, and the pharmaceutically acceptable acid addition salts thereof” (priority 1973, dated 1976):
# Structures can show the parent of a compound that is named as a salt. Non-standard residues stand in square brackets, D forms with d. Residues, ends and D or L forms follow the SMILES beside them. ξ: configuration not given here. *: point of attachment. Dansyl = CN(C)c1cccc2c(S(=O)(=O)*)cccc12; Pyrrolidide = C1CCN(*)C1; ξP = O=C(O)C1CCCN1; Sar = CNCC(=O)O
# Target: T1, thrombin (Bos taurus, UniProt P00735)
# T1 construct: mature alpha-thrombin (light plus heavy chain) cut from prothrombin
# Test: Fibrinogen coagulation time (thrombin-induced clotting of fibrinogen)
# Format: biochemical
# Settings: bovine fibrinogen, borate saline buffer pH 7.4, thrombin 0.1 ml of 5 units/ml, 25°C; control coagulation time 50-55 seconds; read-out: Concentration required to prolong the coagulation time by a factor of 2
# Experimental: The antithrombotic activities of the N^2 -dansyl-L-arginine derivatives of this invention were compared with those of a known antithrombotic agent, (N^2 -(p-tolylsulfonyl)-L-arginine methyl ester). by determining the fibrinogen coagulation time. The measurement of the fibrinogen coagulation time was conducted as follows:
# Immediately after mixing, the reaction mixture was transferred from the ice bath to a bath thermostated at 25°C. Coagulation times were taken as the period between the time of transference to the 25°C bath and the time of the first appearance of fibrin threads.
# The term "concentration required to prolong the coagulation time by a factor of two" is the concentration of an active ingredient required to prolong the normal coagulation time 50-55 seconds to 100-110 seconds.
row,SMILES,IC (2-fold clotting time) [µM]
1,"CCCOC(=O)[C@H](CCCNC(=N)N)NS(=O)(=O)c1cccc2c(N(C)C)cccc12 [Sample 3, N^2 -dansyl-L-arginine n-propyl ester]",2
2,"CC(C)OC(=O)[C@H](CCCNC(=N)N)NS(=O)(=O)c1cccc2c(N(C)C)cccc12 [Sample 4, N^2 -dansyl-L-arginine isopropyl ester dihydrochloride]",30
3,"CC(C)COC(=O)[C@H](CCCNC(=N)N)NS(=O)(=O)c1cccc2c(N(C)C)cccc12 [Sample 6, N^2 -dansyl-L-arginineisobutyl ester di(p-toluene sulfonate)]",110
4,"CC=CCOC(=O)[C@H](CCCNC(=N)N)NS(=O)(=O)c1cccc2c(N(C)C)cccc12 [Sample 12, N^2 -dansyl-L-arginine crotyl ester]",2
5,"C#CCCOC(=O)[C@H](CCCNC(=N)N)NS(=O)(=O)c1cccc2c(N(C)C)cccc12 [Sample 13, N^2-dansyl-L-arginine 3-butynyl ester]",4
6,CN(C)c1cccc2c(S(=O)(=O)N[C@@H](CCCNC(=N)N)C(=O)OC3CCCCC3)cccc12 [Sample 14],60
7,CN(C)c1cccc2c(S(=O)(=O)N[C@@H](CCCNC(=N)N)C(=O)OCC3CCCO3)cccc12 (stereo partly shown) [Sample 15],20
8,"COCCOC(=O)[C@H](CCCNC(=N)N)NS(=O)(=O)c1cccc2c(N(C)C)cccc12 [Sample 16, N^2-dansyl-L-arginine 2-methoxyethyl ester]",5
9,"CN(C)c1cccc2c(S(=O)(=O)N[C@@H](CCCNC(=N)N)C(=O)OCCCCCl)cccc12 [Sample 18, N^2-dansyl-L-arginine 4-chlorobutyl ester]",7
10,CCC(COC(=O)[C@H](CCCNC(=N)N)NS(=O)(=O)c1cccc2c(N(C)C)cccc12)[N+](=O)[O-] (stereo partly shown) [Sample 19],200
11,"CN(C)c1cccc2c(S(=O)(=O)N[C@@H](CCCNC(=N)N)C(=O)NCC3CCCCC3)cccc12 [Sample 37, N^2 -dansyl-N-cyclohexylmethyl-L-argininamide]",40
12,"CCN(CC)C(=O)[C@H](CCCNC(=N)N)NS(=O)(=O)c1cccc2c(N(C)C)cccc12 [Sample 45, N^2 -dansyl-N,N-diethyl-L-argininamide diacetate]",55
13,CCCCN(CCCC)C(=O)[C@H](CCCNC(=N)N)NS(=O)(=O)c1cccc2c(N(C)C)cccc12 [Sample 46],39
14,"CCCCN(C)C(=O)[C@H](CCCNC(=N)N)NS(=O)(=O)c1cccc2c(N(C)C)cccc12 [Sample 47, N^2 -dansyl-N-(n-butyl)-N-methyl-L-argininamide diacetate]",2
15,CCCCN(CC)C(=O)[C@H](CCCNC(=N)N)NS(=O)(=O)c1cccc2c(N(C)C)cccc12 [Sample 48],50
16,CCOC(=O)CN(C)C(=O)[C@H](CCCNC(=N)N)NS(=O)(=O)c1cccc2c(N(C)C)cccc12 [Sample 49] (Dansyl-Arg-[Sar]-OEt),59
17,CCOC(=O)CCN(C)C(=O)[C@H](CCCNC(=N)N)NS(=O)(=O)c1cccc2c(N(C)C)cccc12 [Sample 51],15
18,"CN(C)c1cccc2c(S(=O)(=O)N[C@@H](CCCNC(=N)N)C(=O)N3CCCC3)cccc12 [Sample 53, 1-(N^2-dansyl-L-arginyl)pyrrolidine diacetate]",3.3
19,CCOC(=O)C1CCCN1C(=O)[C@H](CCCNC(=N)N)NS(=O)(=O)c1cccc2c(N(C)C)cccc12 (stereo partly shown) [Sample 54] (Dansyl-Arg-[ξP]-OEt),780
20,"CN(C)c1cccc2c(S(=O)(=O)N[C@@H](CCCNC(=N)N)C(=O)N3CCCCC3)cccc12 [Sample 55, 1-(N^2-dansyl-L-arginyl)piperidine diacetate]",0.9
21,"CC1CCCCN1C(=O)[C@H](CCCNC(=N)N)NS(=O)(=O)c1cccc2c(N(C)C)cccc12 (stereo partly drawn) [Sample 56, 2-methyl-1-(N^2-dansyl-L-arginyl)piperidine]",1.3
22,"CC1CCCN(C(=O)[C@H](CCCNC(=N)N)NS(=O)(=O)c2cccc3c(N(C)C)cccc23)C1 (stereo partly drawn) [Sample 57, 3-methyl-1-(N^2-dansyl-L-arginyl)piperidine]",6.5
23,"CC1CCN(C(=O)[C@H](CCCNC(=N)N)NS(=O)(=O)c2cccc3c(N(C)C)cccc23)CC1 [Sample 58, 4-methyl-1-(N^2-dansyl-L-arginyl)piperidine diacetate]",0.3

# Continued, values first:
row,IC (2-fold clotting time) [µM],SMILES
1,8,"CCOC(=O)[C@H](CCCNC(=N)N)NS(=O)(=O)c1cccc2c(N(C)C)cccc12 [Sample 2, N^2 -dansyl-L-arginine ethyl ester dihydrochloride]"
2,100,"CCNC(=O)[C@H](CCCNC(=N)N)NS(=O)(=O)c1cccc2c(N(C)C)cccc12 [Sample 20, N^2 -dansyl-N-ethyl-L-argininamide monohydrate]"
3,15,"CCCNC(=O)[C@H](CCCNC(=N)N)NS(=O)(=O)c1cccc2c(N(C)C)cccc12 [Sample 21, N^2 -dansyl-N-(n-propyl)-L-argininamide monohydrate]"
4,25,"CCCCNC(=O)[C@H](CCCNC(=N)N)NS(=O)(=O)c1cccc2c(N(C)C)cccc12 [Sample 22, N^2 -dansyl-N-(n-butyl)-L-argininamide monohydrate]"
5,125,CCCCCNC(=O)[C@H](CCCNC(=N)N)NS(=O)(=O)c1cccc2c(N(C)C)cccc12 [Sample 23]
6,20,"CCCCCCNC(=O)[C@H](CCCNC(=N)N)NS(=O)(=O)c1cccc2c(N(C)C)cccc12 [Sample 24, N^2 -dansyl-N-(n-hexyl)-L-argininamide monohydrate]"
7,100,"CCCCCCCNC(=O)[C@H](CCCNC(=N)N)NS(=O)(=O)c1cccc2c(N(C)C)cccc12 [Sample 25, N^2 -dansyl-N-(n-heptyl)-L-argininamide]"
8,1000,"CC(C)NC(=O)[C@H](CCCNC(=N)N)NS(=O)(=O)c1cccc2c(N(C)C)cccc12 [Sample 26, N^2 -dansyl-N-isopropyl-L-argininamide]"
9,100,"CC(C)CNC(=O)[C@H](CCCNC(=N)N)NS(=O)(=O)c1cccc2c(N(C)C)cccc12 [Sample 27, N^2 -dansyl-N-isobutyl-L-argininamide]"
10,4,"COCCNC(=O)[C@H](CCCNC(=N)N)NS(=O)(=O)c1cccc2c(N(C)C)cccc12 [Sample 28, N^2-dansyl-N-(2-methoxyethyl)-L-argininamide dihydrate]"
11,65,COCCCNC(=O)[C@H](CCCNC(=N)N)NS(=O)(=O)c1cccc2c(N(C)C)cccc12 [Sample 29]
12,5,"CCOCCNC(=O)[C@H](CCCNC(=N)N)NS(=O)(=O)c1cccc2c(N(C)C)cccc12 [Sample 30, N^2-dansyl-N-(2-ethoxyethyl)-L-argininamide]"
13,160,"CCOC(=O)CNC(=O)[C@H](CCCNC(=N)N)NS(=O)(=O)c1cccc2c(N(C)C)cccc12 [Sample 31, N^2-dansyl-N-(2-ethoxycarbonylmethyl)-L-argininamide diacetate] (Dansyl-Arg-Gly-OEt)"
14,22,"COC(=O)CCNC(=O)[C@H](CCCNC(=N)N)NS(=O)(=O)c1cccc2c(N(C)C)cccc12 [Sample 32, N^2-dansyl-N-(2-methoxycarbonylethyl)-L-argininamide]"
15,5,"CCOC(=O)CCNC(=O)[C@H](CCCNC(=N)N)NS(=O)(=O)c1cccc2c(N(C)C)cccc12 [Sample 33, N^2-dansyl-N-(2-ethoxycarbonylethyl)-L-argininamide diacetate]"
16,500,CCOC(=O)CCCNC(=O)[C@H](CCCNC(=N)N)NS(=O)(=O)c1cccc2c(N(C)C)cccc12 [Sample 34]
17,10,"C=CCNC(=O)[C@H](CCCNC(=N)N)NS(=O)(=O)c1cccc2c(N(C)C)cccc12 [Sample 35, N^2 -dansyl-N-allyl-L-argininamide]"
18,200,CN(C)c1cccc2c(S(=O)(=O)N[C@@H](CCCNC(=N)N)C(=O)NC3CC3)cccc12 [Sample 36]
19,100,CN(C)c1cccc2c(S(=O)(=O)N[C@@H](CCCNC(=N)N)C(=O)Nc3ccccc3)cccc12 [Sample 38]
20,50,CN(C)c1cccc2c(S(=O)(=O)N[C@@H](CCCNC(=N)N)C(=O)NCc3ccccc3)cccc12 [Sample 39]
21,150,"CN(C)c1cccc2c(S(=O)(=O)N[C@@H](CCCNC(=N)N)C(=O)NCCc3ccccc3)cccc12 [Sample 40, N^2 -dansyl-N-(β-phenylethyl)-L-argininamide dihydrate]"
22,27,CN(C)c1cccc2c(S(=O)(=O)N[C@@H](CCCNC(=N)N)C(=O)NCCCc3ccccc3)cccc12 [Sample 41]
23,> 500,"CN(C)c1cccc2c(S(=O)(=O)N[C@@H](CCCNC(=N)N)C(=O)NCCC(=O)Nc3ccccc3)cccc12 [Sample 42, N^2-dansyl-N-(2-phenylcarbamoylethyl)-L-argininamide diacetate]"
24,370,CN(C)c1cccc2c(S(=O)(=O)N[C@@H](CCCNC(=N)N)C(=O)NCC(=O)N3CCCC3)cccc12 [Sample 43] (Dansyl-Arg-Gly-Pyrrolidide)
25,2.5,"COC(=O)CCN(C)C(=O)[C@H](CCCNC(=N)N)NS(=O)(=O)c1cccc2c(N(C)C)cccc12 [Sample 50, N^2-dansyl-N-methyl-N-(2-methoxycarbonylethyl)-L-argininamide]"
26,7,"CN(Cc1ccccc1)C(=O)[C@H](CCCNC(=N)N)NS(=O)(=O)c1cccc2c(N(C)C)cccc12 [Sample 52, N^2 -dansyl-N-methyl-N-benzyl-L-argininamide]"
